Data: patent US20100292165A1, “Treatment of an intestinal adenoma and/or adenocarcinoma by inhibition of notch pathway activation” (Hubrecht Laboratorium a corporation of the Netherlands, priority 2004, published 2010)
“Also recorded” adds a separate entry of the source.

Tests used:
γ-secretase = test: IC50 of γ-secretase inhibitors, assay not stated
From the text: DAPT, DBZ or BZ are both effective in inducing the formation of a post-mitotic cell from an adenoma and/or adenocarcinoma cell and these compounds thus have a similar effect in a method according to the invention.

adenomas of APC^min mice = test: Oral DAPT treatment of APC^min mice, histology of intestinal adenomas; assay type: in vivo, mouse; conditions: DAPT 100 mg/kg orally once daily
Experimental: The intestinal tract was dissected as a whole and flushed gently with cold PBS to remove any fecal content followed by a flush with Formalin. The small intestine was rolled up into a compact circle and fixed in Formalin at room temperature for 16 hours. The tissues were sectioned (2 to 6 μm). Following dewaxing and hydration, sections were pretreated with peroxidase blocking buffer (120 mM Na2HPO4, 43 mM citric acid, 30 mM NaN3, 0.2% H2O2; pH 5.8) for 15 minutes at room temperature. Antigen retrieval was performed by boiling samples in Na-citrate buffer (10 mM, pH 6.0). After 20 minutes, the boiling pan was allowed to slowly cool down to room temperature. Incubation of antibodies was performed in BSA in PBS overnight at 4° C. and at room temperature for one hour for Lysozyme, Ki67. In all cases, the Envision^+ kit (DAKO) was used as a secondary reagent. The incubation time was 30 minutes. Stainings were developed using DAB. Slides were then counterstained with hematoxylin and mounted. The probes used for in situ hybridization are as described (Schroder et al. 2002). Following dewaxing and hydration, tissues were incubated for five minutes in Alcian Blue (1% in 0.5% acetic acid). Subsequently washed in water, one minute incubated in Neutral Red. Quickly dehydrated, washed in Xylene and mounted with Pertex. The eight-week-old APC^min mice were treated with two different, orally deliverable γ-secretase inhibitors (DAPT: 100 mg/kg in corn oil) for 2.5, 6.5 or 15 days, after which their intestines were isolated and examined histologically. We then asked whether Notch pathway activity was essential for the maintenance of the undifferentiated, proliferative phenotype of adenoma cells. We elected to inhibit the Notch pathway pharmacologically through the use of the γ-secretase inhibitor DAPT. We then initiated treatment of fifteen-week-old APC^min mice that at this age carry 30 to 60 macroscopically detectable adenomas or polyps in the small intestine and one to three adenomas in the colon. The mice were treated with DAPT for up to 15 days, after which their intestines were examined histologically. Based on a pilot experiment and published treatment regimens, the APC^min mice were orally dosed once daily with DAPT at 100 mg/kg in maize oil.

## CC(NC(=O)Cc1cc(F)cc(F)c1)C(=O)NC(C(=O)OC(C)(C)C)c1ccccc1 [DAPT, N—[N-(3,5-difluorophenylacetyl)-L-alanyl]-S-phenylglycine t-butyl ester]
γ-secretase
  IC50: 10 nM
Adenomas of APC^min mice; day 2.5 or day 6.5 of treatment
  effects in adenomas: No consistent effects
Adenomas of APC^min mice; day 15
  Alcian Blue-positive goblet cells in adenomas: increase in goblet cells; also recorded: Large foci of Alcian Blue-positive goblet cells had appeared
  proliferation in adjacent, normal crypts: unaffected
Adenomas of APC^min mice; day 15, colon and small intestinal adenomas
  numbers of proliferating, Ki67-positive cells in adenomas: strongly diminished; also recorded: dramatically decreased; also recorded: halted
